The values that follow come from US9365566B2 (Takeda Pharmaceutical Company Limited, priority 2012, dated 2016).

Molecules are shown by their SMILES.

This assay deals with T1, human BTK (Homo sapiens, UniProt Q06187).
T1 construct: GST (Glutathione-S-Transferase) (cleaved yes); made in house; host or cells: Spodoptera frugiperda Sf9 cells (baculovirus, Bac-to-Bac)
T1 sequence (Q06187 382-659): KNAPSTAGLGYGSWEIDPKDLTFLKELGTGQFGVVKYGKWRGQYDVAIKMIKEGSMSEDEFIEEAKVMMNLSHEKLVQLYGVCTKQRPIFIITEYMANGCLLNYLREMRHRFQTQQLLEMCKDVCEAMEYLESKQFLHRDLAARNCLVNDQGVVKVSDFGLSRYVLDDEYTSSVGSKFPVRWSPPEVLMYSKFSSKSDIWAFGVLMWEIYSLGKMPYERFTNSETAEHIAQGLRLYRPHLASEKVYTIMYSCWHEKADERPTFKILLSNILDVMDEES
Kind of assay: BTK inhibition assay: BTK-mediated phosphorylation of FAM-labeled substrate 5-FAM-EEPLYWSFPAKKK-NH2 (Caliper LC-3000). Type of assay: biochemical. To be noted: pIC50 = -log(IC50), IC50 molar; residues 382 to 659 of human BTK; incubated at room temperature for 60 minutes; larger values represent higher potency. From the text: The activity of compounds as BTK inhibitors may be determined by a variety of methods, including in vitro and in vivo methods.
This construct engineers an in-frame translational fusion with the Glutathione-S-Transferase (GST) protein for use in affinity purification. The fusion protein derived from this construct contains a protease recognition sequence to liberate the BTK from the GST affinity tag. High-titer baculoviral stocks, generated using the Bac-to-Bac® system (Invitrogen), are used to express the recombinant protein in Spodoptera frugiperda Sf9 cells in 10 L Wave bags. Recombinant proteins are isolated from cellular extracts by passage over Glutathione Sepharose 4B (GE Healthcare) and the BTK moiety is released from the GST affinity tag by treatment with PreScission protease. The BTK recombinant protein is further purified by size exclusion chromatography (HiLoad 16/60 Superdex 200, GE Healthcare) in a buffer containing 20 mM Hepes (pH 7.4), 50 mM NaCl, 10 mM MgCl2, 0.25 mM TCEP and 0.1 mM EDTA. The purity of the fractions is assessed by SDS PAGE and the peak protein fractions are pooled and concentrated using Amicon Ultra-15 Centrifugal Filter Devices (Millipore).
The inhibitory properties of compounds relative to BTK is determined using a black 384-well-plate format in a buffer which contains 50 mM Hepes, 10 mM NaCl, 10 mM MgCl2, 0.2 mM EDTA, 0.01% Brij35®, 1 mM DTT, and 0.1 mg/mL BSA at pH 7.3. The test compound is prepared in DMSO using 2-fold serial dilutions for 11 data points, which are added to the buffer so that each dilution contains 3% DMSO. […] The reaction mixtures are incubated at room temperature for 60 minutes and then quenched by adding 25 μL of 50 mM EDTA. To quantify the fluorescent-labeled substrate and product following reaction, the test plate is loaded on a Caliper LC-3000, which measures percent of conversion by microfluidic-based separation.
The compounds were tested in accordance with the assay described on page 34 of the specification.
In turn, `NC(=O)c1nnc2c(-c3ccc4nc(NCc5ccccc5)[nH]c4c3)cccc2c1N` [Example 90, 4-amino-8-(2-(benzylamino)-1H-benzo[d]imidazol-6-yl)cinnoline-3-carboxamide] showed an IC50 of 15.8 nM. This counts as double-digit nanomolar.
The molecule `CCc1ccc2c(N)c(C(N)=O)nnc2c1-c1ccc2cn[nH]c2c1` [Example 61, 4-amino-7-ethyl-8-(1H-indazol-6-yl)cinnoline-3-carboxamide] showed an IC50 of 10 nM.
As to `Cc1cc2cn[nH]c2cc1-c1cc(N2CCOCC2)cc2c(N)c(C(N)=O)nnc12` [Example 137, 4-amino-8-(5-methyl-1H-indazol-6-yl)-6-morpholinocinnoline-3-carboxamide], it took 7.94 nM to reach half-maximal inhibition (IC50).
Then `Cc1nn(C)c2ccc(-c3cccc4c(N)c(C(N)=O)nnc34)cc12` [Example 37, 4-amino-8-(1,3-dimethyl-1H-indazol-5-yl)cinnoline-3-carboxamide], with 3980 nM; and `NC(=O)c1nnc2c(-c3ccc4nc(-c5cc(Cl)cc(Cl)c5)[nH]c4c3)cccc2c1N` [Example 67, 4-amino-8-(2-(3,5-dichlorophenyl)-1H-benzo[d]imidazol-6-yl)cinnoline-3-carboxamide], with 63.1 nM.
The molecule `Cc1ccc2c(N)c(C(N)=O)nnc2c1-c1ccc2ncn(C)c2c1` [Example 23, 4-amino-7-methyl-8-(1-methyl-1H-benzo[d]imidazol-6-yl)cinnoline-3-carboxamide] had an IC50 of 50.1 nM.
In turn, `NC(=O)c1nnc2c(-c3ccc4nc(NCc5cccs5)[nH]c4c3)cccc2c1N` [Example 88, 4-amino-8-(2-(thiophen-2-ylmethylamino)-1H-benzo[d]imidazol-6-yl)cinnoline-3-carboxamide] showed an IC50 of 10 nM.
`COc1cc2cn[nH]c2cc1-c1ccc(F)c2c(N)c(C(N)=O)nnc12` [Example 111, 4-amino-5-fluoro-8-(5-methoxy-1H-indazol-6-yl)cinnoline-3-carboxamide] gave an IC50 of 2 nM.
`NC(=O)c1nnc2c(-c3ccc4nc(NCC5C6CC7CC(C6)CC5C7)[nH]c4c3)cccc2c1N` (stereo not drawn) [Example 94, 8-(2-((adamantan-2-ylmethyl)amino)-1H-benzo[d]imidazol-6-yl)-4-aminocinnoline-3-carboxamide] showed an IC50 of 63.1 nM.
Then `N#Cc1nc2ccc(-c3cccc4c(N)c(C(N)=O)nnc34)cc2[nH]1` [Example 130, 4-amino-8-(2-cyano-1H-benzo[d]imidazol-6-yl)cinnoline-3-carboxamide], with 200 nM.
On to `NC(=O)c1nnc2c(-c3ccc4nc(CCc5ccccc5)[nH]c4c3)cccc2c1N` [Example 69, 4-amino-8-(2-phenethyl-1H-benzo[d]imidazol-6-yl)cinnoline-3-carboxamide], for which the IC50 is 31.6 nM.
Regarding `Cc1ccc2c(N)c(C(N)=O)nnc2c1-c1cnc2cc[nH]c2c1` [Example 21, 4-amino-7-methyl-8-(1H-pyrrolo[3,2-b]pyridin-6-yl)cinnoline-3-carboxamide], the IC50 was 126 nM. This IC50 lies about 4-fold higher than the previous one.
In turn, `CC1CCC(Nc2nc3ccc(-c4cccc5c(N)c(C(N)=O)nnc45)cc3[nH]2)CC1` (stereo not drawn) [Example 91, 4-amino-8-(2-(4-methylcyclohexylamino)-1H-benzo[d]imidazol-6-yl)cinnoline-3-carboxamide] showed an IC50 of 79.4 nM. Compared with the last molecule, the IC50 is about 1.6-fold lower.
Molecule `Cc1ccc2c(N)c(C(N)=O)nnc2c1-c1cnc2[nH]ncc2c1` [Example 47, 4-amino-7-methyl-8-(1H-pyrazolo[3,4-b]pyridin-5-yl)cinnoline-3-carboxamide] had an IC50 of 79.4 nM.
As to `Cc1nc2ccc(-c3cccc4c(N)c(C(N)=O)nnc34)cc2[nH]1` [Example 16, 4-amino-8-(2-methyl-1H-benzo[d]imidazol-6-yl)cinnoline-3-carboxamide], the IC50 is 794 nM.
Regarding `NC(=O)c1nnc2c(-c3ccc4nc(NCC5CCCC5)[nH]c4c3)cccc2c1N` [Example 93, 4-amino-8-(2-(cyclopentylmethylamino)-1H-benzo[d]imidazol-6-yl)cinnoline-3-carboxamide], 7.94 nM corresponded to half-maximal inhibition (IC50).
`Cc1ccc2c(N)c(C(N)=O)nnc2c1-c1cc(C)c2[nH]ncc2c1` [Example 33, 4-amino-7-methyl-8-(7-methyl-1H-indazol-5-yl)cinnoline-3-carboxamide] gave a concentration for half-maximal inhibition (IC50) of 50.1 nM.
Take `N#Cc1ccc2c(N)c(C(N)=O)nnc2c1-c1ccc2cn[nH]c2c1` [Example 135, 4-amino-7-cyano-8-(1H-indazol-6-yl)cinnoline-3-carboxamide]: half-maximal inhibition (IC50) was put at 126 nM.
On to `Cc1ccc2c(N)c(C(N)=O)nnc2c1-c1ccc2ncn(CCO)c2c1` [Example 134, 4-amino-8-(1-(2-hydroxyethyl)-1H-benzo[d]imidazol-6-yl)-7-methylcinnoline-3-carboxamide], for which the midpoint of inhibition, the IC50, lay at 794 nM.
Turning to `NC(=O)c1nnc2c(-c3ccc4nc(C5CCC(F)(F)CC5)[nH]c4c3)cccc2c1N` [Example 84, 4-amino-8-(2-(4,4-difluorocyclohexyl)-1H-benzo[d]imidazol-6-yl)cinnoline-3-carboxamide], the IC50 is 398 nM.
On to `NC(=O)c1nnc2c(-c3ccc4nc(-c5cccc(Cl)c5)[nH]c4c3)cccc2c1N` [Example 76, 4-amino-8-(2-(3-chlorophenyl)-1H-benzo[d]imidazol-6-yl)cinnoline-3-carboxamide], for which the IC50 was 126 nM.
Consider `Cc1ccc2c(N)c(C(N)=O)nnc2c1-c1ccc2c(Cl)n[nH]c2c1` [Example 108, 4-amino-8-(3-chloro-1H-indazol-6-yl)-7-methylcinnoline-3-carboxamide], for which the midpoint of inhibition, the IC50, lay at 39.8 nM.
Then `Cc1ccc2c(N)c(C(N)=O)nnc2c1-c1ccc2[nH]nc(C)c2c1` [Example 50, 4-amino-7-methyl-8-(3-methyl-1H-indazol-5-yl)cinnoline-3-carboxamide], with 100 nM.
Take `COc1cc2[nH]ncc2cc1-c1ccc(F)c2c(N)c(C(N)=O)nnc12` [Example 109, 4-amino-5-fluoro-8-(6-methoxy-1H-indazol-5-yl)cinnoline-3-carboxamide]: the IC50 was 2 nM.
As to `NC(=O)c1nnc2c(-c3ccc4nc(Nc5ccccc5)[nH]c4c3)cccc2c1N` [Example 87, 4-amino-8-(2-(phenylamino)-1H-benzo[d]imidazol-6-yl)cinnoline-3-carboxamide], it took 100 nM to reach half-maximal inhibition (IC50).
Then `NC(=O)c1nnc2c(-c3ccc4nccn4c3)cccc2c1N` [Example 10, 4-amino-8-(imidazo[1,2-a]pyridin-6-yl)cinnoline-3-carboxamide], with 631 nM; and `Cc1ccc2c(N)c(C(N)=O)nnc2c1-c1ccc2cnccc2c1` [Example 58, 4-amino-8-(isoquinolin-6-yl)-7-methylcinnoline-3-carboxamide], with 50.1 nM; and `Cn1ncc2cc(-c3cccc4c(N)c(C(N)=O)nnc34)ccc21` [Example 2, 4-amino-8-(1-methyl-1H-indazol-5-yl)cinnoline-3-carboxamide], with 158 nM.
Turning to `NC(=O)c1nnc2c(-c3ccc4c(c3)NC(=O)C4)cccc2c1N` [Example 20, 4-amino-8-(2-oxoindolin-6-yl)cinnoline-3-carboxamide], the IC50 is 39800 nM.
`NC(=O)c1nnc2c(-c3ccc4c(c3)CNC4=O)ccc(F)c2c1N` [Example 125, 4-amino-5-fluoro-8-(1-oxoisoindolin-5-yl)cinnoline-3-carboxamide] gave an IC50 of 39.8 nM.
Molecule `NC(=O)c1nnc2c(-c3ccc4nc(-c5ccccc5)[nH]c4c3)cccc2c1N` [Example 115, 4-amino-8-(2-phenyl-1H-benzo[d]imidazol-6-yl)cinnoline-3-carboxamide] had an IC50 of 79.4 nM.
`CC(C)(C)n1cnc2cc(-c3cccc4c(N)c(C(N)=O)nnc34)ccc21` [Example 19, 4-amino-8-(1-tert-butyl-1H-benzo[d]imidazol-5-yl)cinnoline-3-carboxamide]: 15800 nM corresponded to half-maximal inhibition (IC50).
`NC(=O)c1nnc2c(-c3cc4[nH]ncc4cc3Cl)ccc(F)c2c1N` [Example 107, 4-amino-8-(5-chloro-1H-indazol-6-yl)-5-fluorocinnoline-3-carboxamide] had an IC50 of 15.8 nM.
Molecule `Cc1ccc2c(N)c(C(N)=O)nnc2c1-c1cc(C)c2c(cnn2C)c1` [Example 32, 4-amino-8-(1,7-dimethyl-1H-indazol-5-yl)-7-methylcinnoline-3-carboxamide] showed an IC50 of 50.1 nM. This IC50 lies about 3.2-fold higher than the previous one.
`Cc1ccc2c(N)c(C(N)=O)nnc2c1-c1ccc2ccncc2c1` [Example 57, 4-amino-8-(isoquinolin-7-yl)-7-methylcinnoline-3-carboxamide] showed an IC50 of 200 nM.
Then `Cc1ccc2c(N)c(C(N)=O)nnc2c1-c1ccc2nc[nH]c2c1` [Example 22, 4-amino-8-(1H-benzo[d]imidazol-6-yl)-7-methylcinnoline-3-carboxamide], with 15.8 nM.

By IC50 is commonly meant the concentration at which inhibition is half-maximal. A lower IC50 goes with inhibition by little substance.
